Compound: O=C1NC(=O)[C@@H](c2cn3c4c(cccc24)CCC3)[C@@H]1c1c[nH]c2ccccc12 [Tivantinib] + CC1(C)CCC(c2ccc(Cl)cc2)=C(CN2CCN(c3ccc(C(=O)NS(=O)(=O)c4ccc(N[C@H](CCN5CCOCC5)CSc5ccccc5)c(S(=O)(=O)C(F)(F)F)c4)cc3)CC2)C1 [Navitoclax] (partner 0.5 µM)
Test: relative viability (nuclei count vs DMSO), 5 days (fraction); higher = more cells survive
Details: first compound 0.3162 µM
In short: (§1)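 Nuclei were stained with Hoechst during a one-step fixation (final 0.05% Triton X-100, 1% formaldehyde, 1 ug/ml Hoechst) carried out 5 days after dosing, then counted on 4× images. The cells, lung cancer lines in 1536-well plates, had been dosed by pin tool the day after seeding with one drug alone or a fixed anchor-drug dose plus five library-drug doses (not always all listed) in √10 steps. Relative viability is the nuclei count in treated wells divided by that in vehicle wells, and each value is the median of duplicate plates.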

Point of comparison: NCI-H23, relative viability 0.753. Against it:
- NCI-H1975 — higher, 1.16
- HOP-62 — higher, 1.02
- NCI-H2347 — higher, 0.755
- NCI-H1355 — higher, 0.808
- CAL-12T — higher, 1.03
- NCI-H1666 — lower, 0.568
- NCI-H1915 — higher, 0.798
- NCI-H1437 — higher, 1.1
- NCI-H322M — higher, 1.16
- NCI-H2085 — higher, 0.939
- HCC-366 — higher, 1.07
- PC-3 [JPC-3] — lower, 0.574
- EKVX — lower, 0.433
- NCI-H1650 — higher, 0.929
- NCI-H1944 — higher, 0.778
- NCI-H1993 — lower, 0.681
- SK-LU-1 — lower, 0.733
- RERF-LC-KJ — higher, 0.829

Compound: O=C1NC(=O)[C@@H](c2cn3c4c(cccc24)CCC3)[C@@H]1c1c[nH]c2ccccc12 [Tivantinib] + COc1cc2c(Oc3ccc(NC(=O)C4(C(=O)Nc5ccc(F)cc5)CC4)cc3F)ccnc2cc1OCCCN1CCOCC1 [Foretinib] (partner 0.25 µM)
Test: as above
Details: first compound 0.01 µM
In short: as §1

Point of comparison: HCC-827, relative viability 1.01. Against it:
- BEN — lower, 0.602
- HCC-15 — higher, 1.04
- NCI-H441 — lower, 0.749
- LOU-NH91 — lower, 0.901
- NCI-H2023 — lower, 0.787
- A-427 — higher, 1.06
- NCI-H460 — lower, 0.935
- NCI-H1755 — lower, 0.971
- NCI-H520 — lower, 0.869
- NCI-H2405 — higher, 1.16
- SW 1573 — higher, 1.04
- NCI-H1395 — higher, 1.11
- 201T — higher, 1.16
- NCI-H1975 — lower, 0.904
- HOP-62 — higher, 1.17
- NCI-H2347 — lower, 0.94
- NCI-H1355 — higher, 1.08
- CAL-12T — higher, 1.17
- NCI-H1666 — lower, 0.936
- H3255 — lower, 0.806
- NCI-H23 — higher, 1.08
- NCI-H1915 — higher, 1.11
- NCI-H1437 — higher, 1.26
- NCI-H322M — higher, 1.02
- NCI-H2085 — lower, 0.921
- HCC-366 — lower, 0.89
- NCI-H1793 — lower, 0.698
- PC-3 [JPC-3] — lower, 1
- EKVX — lower, 0.714
- NCI-H1650 — higher, 1.08
- NCI-H1944 — lower, 0.795
- NCI-H1993 — lower, 0.808
- SK-LU-1 — lower, 0.932
- RERF-LC-KJ — lower, 0.911

Same assay, conditions: first compound 0.03162 µM

Point of comparison: RERF-LC-KJ, relative viability 0.908. Against it:
- BEN — lower, 0.535
- HCC-15 — higher, 1.01
- HCC-827 — higher, 1.12
- NCI-H441 — higher, 1.1
- LOU-NH91 — higher, 0.925
- NCI-H2023 — lower, 0.841
- A-427 — higher, 1.24
- NCI-H460 — higher, 1.06
- NCI-H1755 — lower, 0.863
- NCI-H520 — lower, 0.792
- NCI-H2405 — higher, 1.07
- SW 1573 — lower, 0.83
- NCI-H1395 — higher, 1.03
- 201T — higher, 1.01
- NCI-H1975 — higher, 0.974
- HOP-62 — higher, 1.02
- NCI-H2347 — higher, 1.12
- NCI-H1355 — higher, 1.03
- CAL-12T — higher, 0.953
- NCI-H1666 — higher, 1.01
- H3255 — higher, 0.933
- NCI-H23 — higher, 0.957
- NCI-H1915 — higher, 1.06
- NCI-H1437 — higher, 1.34
- NCI-H322M — higher, 0.922
- NCI-H2085 — higher, 1.13
- HCC-366 — lower, 0.852
- NCI-H1793 — lower, 0.616
- PC-3 [JPC-3] — higher, 1.12
- EKVX — lower, 0.841
- NCI-H1650 — higher, 1.11
- NCI-H1944 — lower, 0.874
- NCI-H1993 — lower, 0.762
- SK-LU-1 — higher, 0.919

Same assay, conditions: first compound 0.1 µM

Point of comparison: HCC-827, relative viability 0.957. Against it:
- BEN — lower, 0.616
- HCC-15 — higher, 0.991
- NCI-H441 — higher, 1.01
- LOU-NH91 — lower, 0.939
- NCI-H2023 — lower, 0.816
- A-427 — higher, 0.97
- NCI-H460 — lower, 0.94
- NCI-H1755 — lower, 0.871
- NCI-H520 — lower, 0.655
- NCI-H2405 — higher, 1.05
- SW 1573 — lower, 0.804
- NCI-H1395 — higher, 0.966
- 201T — higher, 1.02
- NCI-H1975 — lower, 0.905
- HOP-62 — higher, 1.06
- NCI-H2347 — lower, 0.712
- NCI-H1355 — higher, 0.995
- CAL-12T — higher, 1.1
- NCI-H1666 — higher, 0.979
- H3255 — lower, 0.802
- NCI-H23 — higher, 1
- NCI-H1915 — higher, 1.08
- NCI-H1437 — higher, 1.3
- NCI-H322M — lower, 0.943
- NCI-H2085 — lower, 0.916
- HCC-366 — lower, 0.929
- NCI-H1793 — lower, 0.762
- PC-3 [JPC-3] — higher, 1.06
- EKVX — lower, 0.761
- NCI-H1650 — higher, 1.02
- NCI-H1944 — lower, 0.851
- NCI-H1993 — lower, 0.766
- SK-LU-1 — lower, 0.705
- RERF-LC-KJ — lower, 0.85

Same assay, conditions: first compound 0.3162 µM

Point of comparison: SW 1573, relative viability 0.863. Against it:
- BEN — lower, 0.559
- HCC-15 — higher, 0.986
- HCC-827 — lower, 0.485
- NCI-H441 — higher, 0.876
- LOU-NH91 — lower, 0.573
- NCI-H2023 — lower, 0.516
- A-427 — lower, 0.848
- NCI-H460 — higher, 0.97
- NCI-H1755 — higher, 1.03
- NCI-H520 — lower, 0.708
- NCI-H2405 — higher, 0.98
- NCI-H1395 — lower, 0.828
- 201T — higher, 0.921
- NCI-H1975 — higher, 0.996
- HOP-62 — higher, 1.14
- NCI-H2347 — higher, 1.05
- NCI-H1355 — higher, 0.915
- CAL-12T — lower, 0.782
- NCI-H1666 — lower, 0.827
- NCI-H23 — lower, 0.801
- NCI-H1915 — higher, 1.07

Reference: the supplement of paper PMC10307832
